These results are taken from patent US8063029B2, “Pharmaceutical composition” (FCB I LLC, priority 2002, dated 2011).

For data set [1] the following is noted: in vivo; cited from earlier work.
Data set [2] in a line: Solubility / miscibility in carrier fluids. It is filed as physicochemical. From the text: In such situations, when the first fluid evaporates, the compound of interest is left in a supersaturated environment in which it is favorable for the compound to pass into a less saturated environment, in this case through the membrane. […] Accordingly, if increased flux for oxacyclohexadecan-2-one is desired, a carrier may include ethanol and propylene glycol and/or water. […] Accordingly, if increased flux for testosterone is desired, a carrier may include ethanol and water or ethanol and propylene glycol. In addition, water may be used to prevent “reverse-flux”, or the flow of water from the membrane into the matrix of the composition.

As to `C[C@]12CC[C@H]3[C@@H](CCC4=CC(=O)CC[C@@]43C)[C@@H]1CC[C@@H]2O` [testosterone, 17β-hydroxyandrost-4-en-3-one], the “typical half-life in the blood serum” value in data set [1] is 10 to 100 min. Moreover, the solubility / miscibility result in data set [2] (in ethanol) is “soluble”; in data set [2] (in propylene glycol) it was “partially soluble”; in data set [2] (in water) it was “not soluble”.
